The values below come from publication PMC6437697 (Journal of Medicinal Chemistry, 2019).

Test in all cases: KINOMEscan
Holding throughout (assay type): binding
Conditions in all cases: read-out: % control activity remaining

The target of test [1] is T1, ABL1(F317L)-phosphorylated (Homo sapiens, UniProt P00519, F317L).
T1 construct: purchased Eurofins DiscoverX KINOMEscan

Test [2] concerns the target T2, GRK7 (Homo sapiens, UniProt Q8WTQ7).
T2 construct: purchased Eurofins DiscoverX KINOMEscan
T2 sequence (Q8WTQ7 1-553): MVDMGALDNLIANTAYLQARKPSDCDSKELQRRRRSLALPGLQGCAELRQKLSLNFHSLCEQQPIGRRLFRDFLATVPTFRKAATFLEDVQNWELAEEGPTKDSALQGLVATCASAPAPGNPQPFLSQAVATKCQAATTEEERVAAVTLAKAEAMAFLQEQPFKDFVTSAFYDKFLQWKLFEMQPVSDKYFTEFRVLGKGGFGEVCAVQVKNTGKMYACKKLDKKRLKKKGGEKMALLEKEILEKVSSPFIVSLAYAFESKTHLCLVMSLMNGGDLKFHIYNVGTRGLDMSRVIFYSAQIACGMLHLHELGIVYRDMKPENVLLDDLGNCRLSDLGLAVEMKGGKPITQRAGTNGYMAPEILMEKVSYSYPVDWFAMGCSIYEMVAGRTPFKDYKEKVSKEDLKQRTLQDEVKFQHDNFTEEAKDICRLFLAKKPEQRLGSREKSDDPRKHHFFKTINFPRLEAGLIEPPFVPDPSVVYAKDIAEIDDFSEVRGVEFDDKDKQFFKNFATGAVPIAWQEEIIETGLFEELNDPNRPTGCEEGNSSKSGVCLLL

The target of test [3] is T3, PAK2 (Homo sapiens, UniProt Q13177).
T3 construct: purchased Eurofins DiscoverX KINOMEscan
T3 sequence (Q13177 whole entry): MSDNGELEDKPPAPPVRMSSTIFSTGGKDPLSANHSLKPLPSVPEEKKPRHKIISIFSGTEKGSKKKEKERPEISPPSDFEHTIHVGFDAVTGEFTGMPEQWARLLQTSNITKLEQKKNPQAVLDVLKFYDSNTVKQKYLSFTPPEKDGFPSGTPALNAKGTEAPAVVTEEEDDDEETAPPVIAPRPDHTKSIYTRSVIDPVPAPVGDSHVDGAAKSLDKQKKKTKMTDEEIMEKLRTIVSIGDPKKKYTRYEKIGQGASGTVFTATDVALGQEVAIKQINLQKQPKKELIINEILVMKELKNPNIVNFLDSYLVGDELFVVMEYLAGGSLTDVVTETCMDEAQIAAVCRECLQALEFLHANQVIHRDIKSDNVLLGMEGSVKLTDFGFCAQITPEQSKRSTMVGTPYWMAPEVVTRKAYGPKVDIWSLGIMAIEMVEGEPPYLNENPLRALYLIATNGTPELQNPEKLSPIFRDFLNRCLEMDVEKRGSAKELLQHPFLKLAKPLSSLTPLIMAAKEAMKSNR

The target in test [4] is T4, MST4 (Homo sapiens, UniProt Q9P289).
T4 construct: purchased Eurofins DiscoverX KINOMEscan
T4 sequence (Q9P289 whole entry): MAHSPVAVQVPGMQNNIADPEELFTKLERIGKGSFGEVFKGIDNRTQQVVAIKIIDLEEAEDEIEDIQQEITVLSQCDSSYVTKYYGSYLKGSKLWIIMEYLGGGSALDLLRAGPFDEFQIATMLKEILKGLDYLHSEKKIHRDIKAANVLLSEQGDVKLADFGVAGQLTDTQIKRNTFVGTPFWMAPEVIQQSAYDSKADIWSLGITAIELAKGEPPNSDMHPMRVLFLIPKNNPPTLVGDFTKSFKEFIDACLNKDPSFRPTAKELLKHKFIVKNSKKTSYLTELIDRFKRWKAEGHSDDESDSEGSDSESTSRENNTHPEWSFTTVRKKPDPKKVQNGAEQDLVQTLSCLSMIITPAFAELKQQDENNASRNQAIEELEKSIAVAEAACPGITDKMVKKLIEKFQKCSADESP

The target in test [5] is T5, NEK5 (Homo sapiens, UniProt Q6P3R8).
T5 construct: purchased Eurofins DiscoverX KINOMEscan
T5 sequence (Q6P3R8 1-708): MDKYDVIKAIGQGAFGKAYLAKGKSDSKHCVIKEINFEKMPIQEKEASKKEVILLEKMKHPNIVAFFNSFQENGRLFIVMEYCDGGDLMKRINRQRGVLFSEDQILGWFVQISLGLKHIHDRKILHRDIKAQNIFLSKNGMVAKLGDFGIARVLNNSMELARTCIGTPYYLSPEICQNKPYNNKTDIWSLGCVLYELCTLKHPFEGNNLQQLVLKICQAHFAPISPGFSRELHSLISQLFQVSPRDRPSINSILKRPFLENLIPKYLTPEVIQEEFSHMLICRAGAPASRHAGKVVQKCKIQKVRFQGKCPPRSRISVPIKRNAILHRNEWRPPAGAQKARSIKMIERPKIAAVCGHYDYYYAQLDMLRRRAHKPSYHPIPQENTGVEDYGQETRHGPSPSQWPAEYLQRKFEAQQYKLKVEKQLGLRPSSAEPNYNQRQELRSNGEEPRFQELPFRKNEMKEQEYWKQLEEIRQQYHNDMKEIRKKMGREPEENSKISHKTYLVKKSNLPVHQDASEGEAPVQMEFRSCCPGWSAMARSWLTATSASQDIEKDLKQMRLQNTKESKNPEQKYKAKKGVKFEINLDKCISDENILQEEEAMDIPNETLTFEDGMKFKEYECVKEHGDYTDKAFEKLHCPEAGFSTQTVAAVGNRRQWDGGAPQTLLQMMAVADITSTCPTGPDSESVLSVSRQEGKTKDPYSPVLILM

Test [6] deals with T6, BRAF(V600E) (Homo sapiens, UniProt P15056, V600E).
T6 construct: purchased Eurofins DiscoverX KINOMEscan
T6 sequence (P15056 whole entry V600E): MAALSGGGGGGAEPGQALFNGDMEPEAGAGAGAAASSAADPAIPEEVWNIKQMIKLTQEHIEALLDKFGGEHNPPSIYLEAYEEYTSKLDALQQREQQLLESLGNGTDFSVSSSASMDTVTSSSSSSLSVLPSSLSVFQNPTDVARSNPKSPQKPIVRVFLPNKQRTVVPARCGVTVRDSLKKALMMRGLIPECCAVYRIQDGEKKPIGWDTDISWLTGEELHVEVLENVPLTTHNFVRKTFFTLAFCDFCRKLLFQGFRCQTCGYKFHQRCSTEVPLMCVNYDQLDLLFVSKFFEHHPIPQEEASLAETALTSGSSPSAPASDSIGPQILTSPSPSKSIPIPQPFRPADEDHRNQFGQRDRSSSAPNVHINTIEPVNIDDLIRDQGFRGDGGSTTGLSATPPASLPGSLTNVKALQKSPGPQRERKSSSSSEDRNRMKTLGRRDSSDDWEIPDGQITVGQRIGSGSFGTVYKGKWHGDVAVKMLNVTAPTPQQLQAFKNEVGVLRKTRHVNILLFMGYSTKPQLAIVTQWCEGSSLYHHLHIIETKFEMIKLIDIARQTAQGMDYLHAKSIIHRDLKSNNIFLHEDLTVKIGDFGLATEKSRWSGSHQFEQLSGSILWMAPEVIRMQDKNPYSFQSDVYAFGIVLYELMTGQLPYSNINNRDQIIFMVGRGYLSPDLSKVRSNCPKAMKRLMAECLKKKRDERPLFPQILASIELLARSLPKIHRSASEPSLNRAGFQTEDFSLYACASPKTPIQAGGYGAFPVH

In test [7] the target is T7, PKN2 (Homo sapiens, UniProt Q16513).
T7 construct: purchased Eurofins DiscoverX KINOMEscan
T7 sequence (Q16513 whole entry): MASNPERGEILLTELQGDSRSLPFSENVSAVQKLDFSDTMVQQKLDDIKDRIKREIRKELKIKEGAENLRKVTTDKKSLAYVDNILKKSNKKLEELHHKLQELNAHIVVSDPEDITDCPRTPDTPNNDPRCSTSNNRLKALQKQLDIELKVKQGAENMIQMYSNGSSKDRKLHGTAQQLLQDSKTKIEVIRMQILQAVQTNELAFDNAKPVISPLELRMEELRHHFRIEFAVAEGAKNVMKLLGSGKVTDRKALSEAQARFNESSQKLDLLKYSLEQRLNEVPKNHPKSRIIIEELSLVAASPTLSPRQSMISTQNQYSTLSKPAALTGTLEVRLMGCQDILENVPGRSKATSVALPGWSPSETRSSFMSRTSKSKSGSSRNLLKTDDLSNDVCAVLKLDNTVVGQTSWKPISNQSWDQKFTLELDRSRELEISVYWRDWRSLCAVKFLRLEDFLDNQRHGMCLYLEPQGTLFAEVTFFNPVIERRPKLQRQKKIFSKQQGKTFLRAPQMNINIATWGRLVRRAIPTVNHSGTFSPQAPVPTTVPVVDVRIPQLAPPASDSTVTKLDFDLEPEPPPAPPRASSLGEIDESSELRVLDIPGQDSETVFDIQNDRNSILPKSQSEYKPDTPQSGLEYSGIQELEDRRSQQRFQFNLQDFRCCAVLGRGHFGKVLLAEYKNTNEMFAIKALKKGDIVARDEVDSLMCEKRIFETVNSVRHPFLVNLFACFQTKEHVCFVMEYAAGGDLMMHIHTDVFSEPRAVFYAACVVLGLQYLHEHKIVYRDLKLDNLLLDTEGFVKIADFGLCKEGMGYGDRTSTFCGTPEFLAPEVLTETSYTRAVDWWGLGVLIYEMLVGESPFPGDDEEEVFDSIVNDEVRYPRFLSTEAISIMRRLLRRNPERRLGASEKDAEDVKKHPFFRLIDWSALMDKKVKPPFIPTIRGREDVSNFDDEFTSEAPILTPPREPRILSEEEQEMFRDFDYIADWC

Test [8] addresses T8, PIK3CA(E545K) (Homo sapiens, UniProt P42336, E545K).
T8 construct: purchased Eurofins DiscoverX KINOMEscan

Test [9] has as its target T9, ARK5 (Homo sapiens, UniProt O60285).
T9 construct: purchased Eurofins DiscoverX KINOMEscan
T9 sequence (O60285 1-661): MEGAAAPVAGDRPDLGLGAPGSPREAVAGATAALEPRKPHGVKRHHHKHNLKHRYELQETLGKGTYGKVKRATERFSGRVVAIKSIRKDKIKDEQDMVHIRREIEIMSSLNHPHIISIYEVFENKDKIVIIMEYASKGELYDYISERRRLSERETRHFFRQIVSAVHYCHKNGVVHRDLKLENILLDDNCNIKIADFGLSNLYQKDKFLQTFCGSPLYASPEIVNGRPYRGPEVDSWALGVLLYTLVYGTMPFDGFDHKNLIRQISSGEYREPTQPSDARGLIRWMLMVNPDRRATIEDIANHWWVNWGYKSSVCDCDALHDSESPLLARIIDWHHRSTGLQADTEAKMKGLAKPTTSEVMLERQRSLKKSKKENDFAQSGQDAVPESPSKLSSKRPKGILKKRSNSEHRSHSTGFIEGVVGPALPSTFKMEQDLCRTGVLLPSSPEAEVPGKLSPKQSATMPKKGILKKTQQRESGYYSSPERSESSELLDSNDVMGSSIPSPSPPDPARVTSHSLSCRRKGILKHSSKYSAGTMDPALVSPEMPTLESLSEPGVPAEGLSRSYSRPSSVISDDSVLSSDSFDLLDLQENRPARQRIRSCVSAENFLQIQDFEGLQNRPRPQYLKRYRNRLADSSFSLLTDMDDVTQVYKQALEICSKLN

Each structure is given as a SMILES string.

T8 sequence (P42336 whole entry E545K): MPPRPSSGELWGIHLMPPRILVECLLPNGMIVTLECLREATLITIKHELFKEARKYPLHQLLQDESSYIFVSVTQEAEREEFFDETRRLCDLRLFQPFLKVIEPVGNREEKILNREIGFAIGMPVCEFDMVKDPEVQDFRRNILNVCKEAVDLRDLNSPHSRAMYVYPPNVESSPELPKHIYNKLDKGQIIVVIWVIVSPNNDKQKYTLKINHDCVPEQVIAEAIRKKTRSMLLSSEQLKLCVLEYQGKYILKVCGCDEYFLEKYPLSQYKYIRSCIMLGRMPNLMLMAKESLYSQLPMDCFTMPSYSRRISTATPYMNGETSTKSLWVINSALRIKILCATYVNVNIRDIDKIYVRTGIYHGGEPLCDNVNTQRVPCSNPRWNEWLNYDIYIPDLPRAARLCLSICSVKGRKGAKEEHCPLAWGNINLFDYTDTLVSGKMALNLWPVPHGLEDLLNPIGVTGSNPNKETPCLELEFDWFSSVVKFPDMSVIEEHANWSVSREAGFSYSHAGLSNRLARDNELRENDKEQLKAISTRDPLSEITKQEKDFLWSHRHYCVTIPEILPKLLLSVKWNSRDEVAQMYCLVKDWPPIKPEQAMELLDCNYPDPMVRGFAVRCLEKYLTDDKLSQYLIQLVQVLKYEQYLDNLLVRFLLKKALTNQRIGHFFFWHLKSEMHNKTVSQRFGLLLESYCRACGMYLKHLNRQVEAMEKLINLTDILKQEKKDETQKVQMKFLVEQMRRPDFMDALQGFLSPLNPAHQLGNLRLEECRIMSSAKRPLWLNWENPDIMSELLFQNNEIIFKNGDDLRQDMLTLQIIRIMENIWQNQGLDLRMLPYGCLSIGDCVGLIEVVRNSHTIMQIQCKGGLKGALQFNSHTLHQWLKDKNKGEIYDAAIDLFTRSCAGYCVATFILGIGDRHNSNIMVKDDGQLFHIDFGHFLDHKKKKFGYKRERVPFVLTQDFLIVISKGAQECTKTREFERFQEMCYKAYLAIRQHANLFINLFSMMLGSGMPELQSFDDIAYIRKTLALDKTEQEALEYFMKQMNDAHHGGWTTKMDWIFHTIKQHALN
T1 sequence (P00519 whole entry F317L): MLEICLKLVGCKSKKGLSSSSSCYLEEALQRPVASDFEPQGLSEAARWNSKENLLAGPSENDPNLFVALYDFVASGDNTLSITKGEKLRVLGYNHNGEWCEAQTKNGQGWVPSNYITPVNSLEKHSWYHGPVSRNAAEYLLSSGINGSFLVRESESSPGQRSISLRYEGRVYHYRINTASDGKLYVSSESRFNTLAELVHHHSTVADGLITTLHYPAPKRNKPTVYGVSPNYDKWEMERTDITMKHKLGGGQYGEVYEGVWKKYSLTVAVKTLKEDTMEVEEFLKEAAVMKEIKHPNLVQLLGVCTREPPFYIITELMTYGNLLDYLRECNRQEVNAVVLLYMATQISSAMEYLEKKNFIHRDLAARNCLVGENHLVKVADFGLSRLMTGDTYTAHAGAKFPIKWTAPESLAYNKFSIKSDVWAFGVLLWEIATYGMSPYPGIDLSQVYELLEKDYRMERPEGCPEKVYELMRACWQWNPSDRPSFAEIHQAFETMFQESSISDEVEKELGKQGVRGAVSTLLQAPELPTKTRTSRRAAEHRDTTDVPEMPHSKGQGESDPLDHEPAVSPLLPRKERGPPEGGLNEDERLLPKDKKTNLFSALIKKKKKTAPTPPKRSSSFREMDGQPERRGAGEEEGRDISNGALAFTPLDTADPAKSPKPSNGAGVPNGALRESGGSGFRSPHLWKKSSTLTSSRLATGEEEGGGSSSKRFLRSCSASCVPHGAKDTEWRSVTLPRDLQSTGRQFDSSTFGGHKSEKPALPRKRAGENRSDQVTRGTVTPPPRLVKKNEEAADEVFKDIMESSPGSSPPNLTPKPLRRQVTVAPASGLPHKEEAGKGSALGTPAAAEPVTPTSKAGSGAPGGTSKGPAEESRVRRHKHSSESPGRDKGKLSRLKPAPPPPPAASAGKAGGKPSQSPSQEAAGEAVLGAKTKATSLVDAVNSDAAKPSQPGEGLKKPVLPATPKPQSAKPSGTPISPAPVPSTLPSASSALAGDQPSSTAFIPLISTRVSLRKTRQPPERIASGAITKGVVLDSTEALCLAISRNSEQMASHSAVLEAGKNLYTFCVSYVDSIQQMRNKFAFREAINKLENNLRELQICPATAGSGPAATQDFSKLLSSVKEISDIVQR

As to `Clc1cc(NCC2CC2)c2ncc(-c3ccc4[nH]ncc4c3)n2n1` [compound 2, 6-Chloro-N-(cyclopropylmethyl)-3-(1H-indazol-5-yl)imidazo[1,2-b]pyridazin-8-amine], the remaining binding at 1 µM was 60% in test [1]; 97% in test [2]; 71% in test [3]; 88% in test [4]; 93% in test [5]; 99% in [6]. In addition, the remaining binding at 1 µM turned out to be 100% in test [7], 75% in [8] and 99% in [9].

As for `O=C(CN1CCOCC1)N[C@H]1CC[C@H](Nc2cc(Cl)nn3c(-c4ccc5[nH]ncc5c4)cnc23)CC1` [compound 26], the remaining binding at 1 µM in test [1] was 6.2%; in [2], 63%; in test [3], 76%; in test [4], 84%; in [5], 86%; in [6], 89%. Moreover, the remaining binding at 1 µM in test [7] was 100%; in test [8], 80%; in test [9], 100%.

Take `CN1CCC(CNc2cc(Cl)nn3c(-c4cc5nc(Nc6ccccc6)[nH]c5cc4F)cnc23)CC1` [compound 31, 6-Chloro-3-(6-fluoro-2-(phenylamino)-1H-benzo[d]imidazol-5-yl)-N-((1-methylpiperidin-4-yl)methyl)imidazo[1,2-b]pyridazin-8-amine]: the remaining binding at 1 µM turned out to be 73% in test [1]; 77% in test [2]; 91% in [3]; 100% in test [4]; 96% in test [5]; 98% in test [6]. The remaining binding at 1 µM stood at 98% in test [7], 68% in [8] and 100% in test [9].
